# Structures can show the parent of a compound that is named as a salt.
# Target: T1, untagged HECT of NEDD4 wild-type (WT) (E3 ligase) (Homo sapiens, UniProt P46934)
# T1 construct: untagged HECT of NEDD4 wild-type (WT) (E3 ligase); made in house
# T1 sequence (P46934 519-900 isoform P46934-4 limits assumed): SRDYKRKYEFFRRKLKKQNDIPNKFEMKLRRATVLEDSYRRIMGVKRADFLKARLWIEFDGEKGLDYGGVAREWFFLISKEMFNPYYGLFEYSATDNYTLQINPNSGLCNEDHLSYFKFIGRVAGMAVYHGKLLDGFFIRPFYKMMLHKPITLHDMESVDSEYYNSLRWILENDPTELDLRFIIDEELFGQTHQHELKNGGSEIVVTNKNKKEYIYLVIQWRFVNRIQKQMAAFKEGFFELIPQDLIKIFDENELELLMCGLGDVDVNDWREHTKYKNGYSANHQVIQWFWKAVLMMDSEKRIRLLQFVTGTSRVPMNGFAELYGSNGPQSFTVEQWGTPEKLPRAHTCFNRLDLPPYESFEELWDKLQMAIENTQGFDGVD
# Experiment: In vitro ubiquitination assay TR-FRET based (self-ubiquitination of NEDD4)
# Type: biochemical
# Conditions: at 11 μM; pre-incubated for 1 hour; AUC of 120 minutes kinetic; read-out: percentages of inhibition (NEDD4)
# Source text: FIG. 1: TR-FRET kinetic assay performed with compound 12. […] Reactions were initiated with the addition of ATP. As labeled ubiquitin molecules become incorporated into chains they come into close proximity, resulting in energy transfer and increased signal to background detection. The activity of the enzyme is continuously and real time detected and it is expressed as % of signal/background during the time.
# In order to quantitatively measure the self-ubiquitination process of the E3 HECT ligase NEDD4 the inventors employed a TR-FRET based assay. TR-FRET technology exploits the long-lasting emission of lanthanide fluorescence to interpose a short time-delay between FRET donor excitation and emission. This phenomenon enables to isolate real fluorescent signals from short-lived background emissions, thus reducing possible interference from compounds.
# In the present study, elongation of the ubiqutin chain by NEDD4 is measured by adding bacterially expressed E1, His-tagged UBE2D3 (E2) and untagged HECT of NEDD4 wild-type (WT) (E3 ligase) (named in FIG. 1 as WT) enzymes to a mixture of Eu-cryptate ubiquitin, Cy5-ubiquitin and wild-type ubiquitin, combined in a ratio optimized for TR-FRET based conjugation (100×TRF-Ubiquitin Mix, SBB-TR0051). […] Bacterially expressed E1, His-tagged UBE2D3 (E2), untagged HECT NEDD4 (E3 ligase) WT and NEDD4 C/A enzymes were produced and purified as reported in E. Maspero et al. Methods Mol Biol. 1449:153-60 (2016).
# Enzymatic incorporation of the labeled TRF-Ubiquitin mix into chains leads to an increase in fluorescence emission at 665 nm (emission of the acceptor Cy5-Ubiquitin, Emacceptor) and decrease at emission wavelength 620 nm (emission of the donor Eu-cryptate Ubiquitin, Emdonor).
# The assay was performed in a 384-well plate format (Optiplate, Perkin Elmer, #6007290) on an automated liquid-handler (Hamilton STAR, Hamilton Robotics, Switzerland).
# All compounds were dissolved in 100% DMSO and serially diluted in 96-well plates (from 100 μM to 0.005 μM).
# Briefly, all reagents were thawed and kept on ice. A master mix containing E1, E2, E3 and TRF-Ubiquitin Mix (SBB-TR0051) diluted in the assay buffer (Tris-HCl pH 7.6 25 mM, NaCl 100 mM, MgCl2 5 mM and Tween 0.01%) is prepared and 50 μl/well is dispensed in a 384 well plate. 3 μl of compounds dissolved in DMSO in the above-indicated concentration range were added and pre-incubated for 1 hour. Final E1, E2 and E3 concentrations in the assay buffer (Tris-HCl pH 7.6 25 mM, NaCl 100 mM, MgCl2 5 mM and Tween 0.01%) were 30, 350 and 50 nanomolars, respectively. The reaction was initiated with the addition of ATP (22 μl of 2 mM ATP, JenaBioscience, NU-1010) and was allowed to proceed for 120 minutes, measuring fluorescence emission at 665 nm and 620 nm in real-time on an EnSpire microplate reader (Perkin Elmer).
# Kinetic raw data were analyzed by Area Under the Curve (AUC) method using Prism GraphPad software.
# % signal/background corresponds to the following equation: (Experimental signal−Background signal)/Background signal×100%
# Experimental signal corresponds to the signal obtained by the enzymatic reaction in presence of the vehicle (DMSO) and/or the different compound concentrations. Background signal corresponds to the signal obtained by the enzymatic reaction in absence of ATP.
# The relative potency of the compounds was evaluated by dose-response curves following the enzymatic reaction of HECT NEDD4 WT in real time for 120 minutes.
# Percentage of inhibition is then determined by the equation: % inhibition=100×[1−(X)/(MAX)],
# where MAX correspond to AUC of the vehicle (DMSO) treated enzyme, and X corresponds to the AUC of the compound treated enzyme.
row,inhibition at 11 µM,SMILES
1,30 to 50%,"COC(=O)/C=C/CN(C)CCCN1c2ccccc2CCc2ccc(Cl)cc21 [Compound 1, Methyl (E)-4-[3-(3-chloro-10,11-dihydro-5H-dibenzo[b,f]azepin-5-yl)propyl-methyl-amino]but-2-enoate hydrochloride]"
2,> 50%,"CCOC(=O)/C=C/CNCCCN1c2ccccc2COc2ccc(Cl)cc21 [Compound 2, Ethyl (E)-4-[3-(7-chlorodibenzo[b,e][1,4]oxazepin-5(11H)-yl)propylamino]but-2-enoate maleate]"
3,30 to 50%,"CCOC(=O)/C=C/CNCCCN1c2ccccc2COc2ccc(C(F)(F)F)cc21 [Compound 3, Ethyl (E)-4-{3-[7-(trifluoromethyl)dibenzo[b,e][1,4]oxazepin-5(11H)-yl]propylamino}but-2-enoate maleate]"
4,> 50%,"CCOC(=O)/C=C/CNCCCN1c2ccccc2CCc2ccc(Cl)cc21 [Compound 4, Ethyl (E)-4-[3-(3-chloro-10,11-dihydro-5H-dibenzo[b,f]azepin-5-yl)propylamino]but-2-enoate fumarate]"
5,> 50%,"CON(C)C(=O)/C=C/CN(C)CCCN1c2ccccc2CCc2ccc(Cl)cc21 [Compound 6, (E)-4-[3-(3-Chloro-10,11-dihydro-5H-dibenzo[b,f]azepin-5-yl)propyl-methyl-amino]-N-methoxy-N-methyl-but-2-enamide]"
6,> 50%,"CC(=O)/C=C/CN(C)CCCN1c2ccccc2CCc2ccc(Cl)cc21 [Compound 7, (E)-5-[3-(3-chloro-10,11-dihydro-5H-dibenzo[b,f]azepin-5-yl)propyl-methyl-amino]pent-3-en-2-one maleate]"
7,> 50%,"CN(C/C=C/C(=O)c1ccccc1)CCCN1c2ccccc2CCc2ccc(Cl)cc21 [Compound 8, (E)-4-[3-(3-chloro-10,11-dihydro-5H-dibenzo[b,f]azepin-5-yl)propyl-methyl-amino]-1-phenyl-but-2-en-1-one]"
8,> 50%,"CC(=O)/C=C/CN(C)CCCCN1c2ccccc2CCc2ccc(Cl)cc21 [Compound 10, (E)-5-[4-(3-chloro-10,11-dihydro-5H-dibenzo[b,f]azepin-5-yl)butyl-methyl-amino]pent-3-en-2-one maleate]"
9,30 to 50%,"CCOC(=O)/C=C/CNCCCN1c2ccccc2CCc2ccccc21 [Compound 11, Ethyl (E)-4-[3-(10,11-dihydro-5H-dibenzo[b,f]azepin-5-yl)propylamino]but-2-enoate fumarate]"
10,> 50%,"CCOC(=O)/C=C/CNCCCCCN1c2ccccc2CCc2ccc(Cl)cc21 [Compound 13, Ethyl (E)-4-[5-(3-chloro-10,11-dihydro-5H-dibenzo[b,f]azepin-5-yl)pentylamino]but-2-enoate maleate]"
11,> 50%,"CCOC(=O)/C=C/CNCCCN1c2ccccc2CCc2ccc([N+](=O)[O-])cc21 [Compound 14, Ethyl (E)-4-[3-(3-nitro-10,11-dihydro-5H-dibenzo[b,f]azepin-5-yl)propylamino]but-2-enoate maleate]"
12,> 50%,"CCOC(=O)/C=C/CNCCCN1c2ccccc2CCc2ccc(Br)cc21 [Compound 15, Ethyl (E)-4-[3-(3-bromo-10,11-dihydro-5H-dibenzo[b,f]azepin-5-yl)propylamino]but-2-enoate maleate]"
13,< 30%,"O=C(O)/C=C/CNCCCN1c2ccccc2CCc2ccc(Cl)cc21 [Compound 16, (E)-4-[3-(3-chloro-10,11-dihydro-5H-dibenzo[b,f]azepin-5-yl)propylamino]but-2-enoic acid 2,2,2-trifluoroacetate]"
14,< 30%,"O=C(O)/C=C/CNCCCCN1c2ccccc2CCc2ccc(Cl)cc21 [Compound 17, (E)-4-[4-(3-chloro-10,11-dihydro-5H-dibenzo[b,f]azepin-5-yl)butylamino]but-2-enoic acid 2,2,2-trifluoroacetate]"
15,< 30%,"NC(=O)/C=C/CNCCCN1c2ccccc2CCc2ccc(Cl)cc21 [Compound 18, (E)-4-{[3-(3-chloro-10,11-dihydro-5H-dibenzo[b,f]azepin-5-yl)propyl]amino}but-2-enamide hydrochloride]"
16,< 30%,"CNC(=O)/C=C/CNCCCN1c2ccccc2CCc2ccc(Cl)cc21 [Compound 19, (E)-4-{[3-(3-chloro-10,11-dihydro-5H-dibenzo[b,f]azepin-5-yl)propyl]amino}-N-methyl-but-2-enamide hydrochloride]"
17,< 30%,"CN(C)C(=O)/C=C/CNCCCN1c2ccccc2CCc2ccc(Cl)cc21 [Compound 20, (E)-4-{[3-(3-chloro-10,11-dihydro-5H-dibenzo[b,f]azepin-5-yl)propyl]amino}-N,N-dimethyl-but-2-enamide hydrochloride]"
18,< 30%,"O=C(/C=C/CNCCCN1c2ccccc2CCc2ccc(Cl)cc21)Nc1ccccc1 [Compound 21, (E)-4-{[3-(3-chloro-10,11-dihydro-5H-dibenzo[b,f]azepin-5-yl)propyl]amino}-N-phenyl-but-2-enamide hydrochloride]"
19,> 50%,"N#C/C=C/CNCCCN1c2ccccc2CCc2ccc(Cl)cc21 [Compound 22, (E)-4-{[3-(3-chloro-10,11-dihydro-5H-dibenzo[b,f]azepin-5-yl)propyl]amino}but-2-enenitrile hydrochloride]"
20,30 to 50%,"CCOC(=O)/C=C/CNCCCN1c2ccccc2NC(=O)c2ccc(Cl)cc21 [Compound 23, Ethyl (E)-4-{[3-(3-chloro-11-oxo-10,11-dihydro-5H-dibenzo[b,e][1,4]diazepin-5-yl)propyl]amino}but-2-enoate maleate]"
21,> 50%,"CCOC(=O)/C=C/CNCCCCN1c2ccccc2NC(=O)c2ccc(Cl)cc21 [Compound 24, Ethyl (E)-4-{[4-(3-chloro-11-oxo-10,11-dihydro-5H-dibenzo[b,e][1,4]diazepin-5-yl)butyl]amino}but-2-enoate maleate]"
22,< 30%,"CCOC(=O)/C=C/CNCCCN1c2ccccc2NC(=O)c2ccc(C(F)(F)F)cc21 [Compound 25, Ethyl (E)-4-{[3-(11-oxo-3-(trifluoromethyl)-10,11-dihydro-5H-dibenzo[b,e][1,4]diazepin-5-yl)propyl]amino}but-2-enoate maleate]"
23,> 50%,"CCOC(=O)/C=C/CNCCCN1c2cc(Cl)ccc2NC(=O)c2ccccc21 [Compound 26, Ethyl (E)-4-{[3-(7-chloro-11-oxo-10,11-dihydro-5H-dibenzo[b,e][1,4]diazepin-5-yl)propyl]amino}but-2-enoate maleate]"
24,> 50%,"CCOC(=O)/C=C/CNCCCN1c2cc(Cl)ccc2C(=O)N(C)c2ccccc21 [Compound 27, Ethyl (E)-4-{[3-(3-chloro-10-methyl-11-oxo-10,11-dihydro-5H-dibenzo[b,e][1,4]diazepin-5-yl)propyl]amino}but-2-enoate maleate]"

# From patent US12403144B2, “HECT E3 ligase inhibitors and uses thereof” (IFOM FONDAZIONE ISTITUTO FIRC DI ONCOLOGIA MOLECOLARE, priority 2019, dated 2025)
